# Entries after “also recorded” stand apart in the source; their conditions may differ.
# Tests used:
# [1] = Storage stability of triheptanoin oil; format: physicochemical; details: stored at room temperature and protected from light
# From the text: In some embodiments, the triheptanoin oil as described herein is a colorless oil of low viscosity and is odorless and tasteless. Triheptanoin oil as described herein is typically stored at room temperature and protected from light, and its stability can exceed 24 months under such conditions.
# [2] = Single dose study, PK profile of triheptanoin and metabolites; format: in vivo; details: single oral gavage dose, Day 1, mini-pigs
# Protocol: Single dose study of each arm with full pharmacokinetics (PK) profile through 48 hours post dose was performed to determined when metabolites return to baseline (one week washout between each arm) as well as if acute release of gastrin and cholesystokinin (CCK) hormones cause spasmodic stomach contractions. Blood samples were collected from each arm 0-90 min plus anytime outside this window if gastric distress observed.
# More specifically, animals (n=3/sex) were fasted prior to dose and fed 4 hrs post dose. Blood samples for PK analysis of triheptanoin and metabolites were collected pre-dose through 48 hrs post dose.
# In FIGS. 1-21, animals were administered a single oral gavage dose level of a triheptanoin oil sample (i.e., the oil) or exemplary solid samples comprising triheptanoin oil in accordance with the present invention. The two exemplary solid compositions comprise 1) 60%:20%:20% of triheptanoin oil:Cab-O-Sil:cellulose acetate (i.e., the Powder-ER); and 2) 80%:20% of triheptanoin oil:Cab-O-Sil (i.e., the Powder), respectively.
# mini-pigs = experiment: Multiple dose study, vomiting and gastric distress observations
# [3] = Multiple dose study, metabolite PK profiles Day 1 and Day 7
smiles,measurement,setting,value
"CCCCCCC(=O)OCC(COC(=O)CCCCCC)OC(=O)CCCCCC [triheptanoin oil, propane-1,2,3-triyl triheptanoate]",stability,[1],exceed 24 months
same,"levels of ketones (C4-OH, C5-OH)",[2],comparable levels of ketones
same,vomiting or gastric distress observed,mini-pigs,Day 1: Animal #6501 vomited ˜3 hours post dose; also recorded: Day 1: Animal #6516 vomited ˜3 hours post dose; also recorded: Day 5: Animal #6509 gastric distressed observed
same,Propionylglycine levels,"[3]; Day 1 and Day 7, mini-pigs",essentially zero
same,pimelic acid levels,"[3]; Day 1 and Day 7, mini-pigs",highest amount of pimelic acid
same,conversion of triheptanoin to C7,[3]; mini-pigs,All triheptanoin oil was converted to C7
same,triheptanoin levels,[3]; mini-pigs,no triheptanoin values
